Results from PubChem BioAssay (NCI).
Values joined by “and” are separate entries in the source; they are usually repeats but may differ in a detail not shown here. Equal values may be shown once.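 Compound exposure: 48 hours, 5 concentrations, 96-well plates. GI50 marks 50% less growth. TGI: concentration producing complete growth inhibition.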

Tested on: HOP-92 NSCLC
Assay: inhibition of tumour cell growth, NCI panel, 48 h

Structure (SMILES) | GI50 | TGI
C=CC(=O)N1CC2(CCN(c3nc(OC4CCN(CCCOC)CC4)nc4c(OCC(F)(F)F)c(-c5c(C)ccc6[nH]ncc56)c(C5CC5)cc34)CC2)C1 | 3.53 µM | 11 µM
FC(F)(F)c1cccc(Nc2nccc(-c3cnn4nc(-c5ccccc5)ccc34)n2)c1 | 3.54 µM | 10.9 µM
CC[C@@H]1C(=O)N(C)c2cnc(Nc3ccc(C(=O)NC4CCN(C)CC4)cc3OC)nc2N1C1CCCC1 | 0.0125 µM and 0.0149 µM | 0.563 µM and 2.36 µM
C=C1C(=O)O[C@H]2[C@H]1CC/C(COC(=O)c1ccc3ccccc3c1)=C\CC[C@@]1(C)O[C@@H]21 | 0.301 µM | 1.81 µM
CC[CH2][Sn]([CH2]CC)([O]C(=O)c1cccnc1SC)[O][Sn]([CH2]CC)([CH2]CC)[O]C(=O)c1cccnc1SC | 0.342 µM | 0.829 µM
CC(C)c1nc(CN(C)C(=O)N[C@H](C(=O)N[C@@H](Cc2ccccc2)C[C@H](O)[C@H](Cc2ccccc2)NC(=O)OCc2cncs2)C(C)C)cs1 | 20.8 µM | 49.5 µM

Tested on: HOP-62 NSCLC
Assay: inhibition of tumour cell growth, NCI panel, 48 h

Structure (SMILES) | GI50 | TGI
CN1CCN(C(=O)OCc2nc3c(N4CCOCC4)nc(Cl)nc3n2C)CC1 | 1.53 µM | 4.92 µM
COC(=O)[C@]12CC[C@@H](C)[C@H](C)[C@@H]1C1=CC[C@@H]3[C@@]4(C)C/C(=N\O)[C@H](O)[C@@]5(C)COC(=C45)C[C@@]3(C)[C@]1(C)CC2 | 12.3 µM | 26.3 µM
Oc1c(CN2CCC(N3CCCCC3)CC2)cc(Cc2cc(CN3CCC(N4CCCCC4)CC3)c(O)c3ncccc23)c2cccnc12 | 0.425 µM | 4.93 µM
Cn1c2ccccc2c2c(-c3ccccc3)[n+]3ccncc3nc21 | > 100 µM | > 100 µM
COc1ccc(-c2cnnc3c(-c4cccc(C(F)(F)F)c4)cnn23)cc1 | 2.72 µM | 13.1 µM
NC(=O)c1ccc(I)c(N)c1 | > 100 µM | > 100 µM
CC/C(=C(/c1ccc(O)cc1)c1ccc(OCCNC)cc1)c1ccccc1 | 2.03 µM | 4.44 µM
O=C(/C(Br)=C/c1ccccc1)c1ccccc1 | 2.29 µM | 6.1 µM
C=C1C(=O)O[C@H]2[C@H]1CC/C(Cn1cc(-c3ccc(OC)cc3)nn1)=C\CC[C@@]1(C)O[C@@H]21 | 10.5 µM | 23.1 µM
O=C1CCCCN1CCCCC#Cc1ccccc1C#Cc1ccc([N+](=O)[O-])cc1 | 8.01 µM | 22.5 µM
CCOc1cc2c(Cl)ncnc2c(OCC)c1OCC | 15.5 µM | 30.9 µM
Oc1ccc2ccccc2c1N=Nc1nccs1 | 3.87 µM | 56.8 µM
CC(=O)OCCN1c2ccccc2Sc2cnccc21 | – | > 10 µM
COc1ccc(/C(COc2c(-c3ccccc3)oc3ccccc3c2=O)=N\O)cc1 | 49.6 µM | > 50 µM
Cn1c(=O)c2[nH]c(SCc3ccccn3)nc2n(C)c1=S | – | > 100 µM
COc1cc2c(c(O)c1Br)C(=O)c1c(O)cc(C[C@H](C)O)cc1[C@H]2[C@H]1c2cc(C[C@H](C)O)cc(O)c2C(=O)c2c1cc(OC)c(Br)c2O | 6.76 µM and 19.1 µM | 63.1 µM and 96 µM
COc1ccc(-c2cc(=O)c3ccc(O)cc3o2)cc1OC | – | > 100 µM
CC[C@]1(O)C[C@@H]2CN(CCc3c([nH]c4ccccc34)[C@@](C(=O)OC)(c3cc4c(cc3OC)N(C)[C@H]3[C@@](O)(C(=O)OC)[C@H](OC(C)=O)[C@]5(CC)C=CCN6CC[C@]43[C@@H]65)C2)C1 | < 0.01 µM | 24.1 µM
N#CSc1c[nH]c2cccc(/C=C/C(=O)/C=C(/C=C/c3cccc4[nH]cc(SC#N)c34)OB(F)F)c12 | 3.16 µM | 17.1 µM
C=CC(=O)N1CC2(CCN(c3nc(OC4CCN(CCCOC)CC4)nc4c(OCC(F)(F)F)c(-c5c(C)ccc6[nH]ncc56)c(C5CC5)cc34)CC2)C1 | – | 19.6 µM
FC(F)(F)c1cccc(Nc2nccc(-c3cnn4nc(-c5ccccc5)ccc34)n2)c1 | 8.1 µM | > 20.7 µM
CC[C@@H]1C(=O)N(C)c2cnc(Nc3ccc(C(=O)NC4CCN(C)CC4)cc3OC)nc2N1C1CCCC1 | 0.00533 µM and < 0.01 µM | > 10 µM and 6.35 µM
C=C1C(=O)O[C@H]2[C@H]1CC/C(COC(=O)c1ccc3ccccc3c1)=C\CC[C@@]1(C)O[C@@H]21 | 1.56 µM | 2.97 µM
CC[CH2][Sn]([CH2]CC)([O]C(=O)c1cccnc1SC)[O][Sn]([CH2]CC)([CH2]CC)[O]C(=O)c1cccnc1SC | 2.32 µM | 5.31 µM
CC(C)c1nc(CN(C)C(=O)N[C@H](C(=O)N[C@@H](Cc2ccccc2)C[C@H](O)[C@H](Cc2ccccc2)NC(=O)OCc2cncs2)C(C)C)cs1 | 19.6 µM | 38.2 µM
